The structures appear in SMILES notation.

Experiment [1] deals with T1, AChE (EC 3.1.1.7) from electric eel (Electrophorus electricus, UniProt O42275).
T1 construct: purchased Sigma-Aldrich C3389
The experiment in a line: biochemical. Conditions: for IC50: AChE from electric eel, mean ± SEM of three experiments; for Selectivity index (SI) = BuChE IC50/AChE IC50: eqBuChE IC50 / eeAChE IC50. The method, then: (§1) AChE (EC 3.1.1.7, Type VI-S, from electric eel, C3389; from human, C1682) and BuChE (EC 3.1.1.8, from equine serum, C0663; from human, B4186), 5,5'-dithiobis (2-nitrobenzoic acid) (DTNB, D218200), acetylthiocholine iodide (ATC, A5751), and butyrylthiocholine iodide (BTC, B3253) were obtained from Sigma-Aldrich (St. Louis, MO).
(§2) The inhibitory effects of the synthesised compounds in this paper were evaluated according to our previously reported method. […] ATC/BTC iodide solution (0.075 M) was prepared in deionised water. […] The assay buffer was prepared as follows: potassium dihydrogen phosphate (1.36 g, 10 mmol) was dissolved in 100 ml of water. The pH of the solution was then adjusted to 8.0 ± 0.1 with KOH. Stock solutions of the test samples were dissolved in ethanol to give a final concentration of 10^−4 M when diluted to the final volume of 3.32 ml. For each compound, a dilution series of at least five different concentrations (normally 10^−5–10^−9 M) were prepared.
(§3) For measurement, a cuvette containing 3.0 ml of phosphate buffer, 100 µL of AChE or BuChE, 100 µL of DTNB, and 100 µL of the test compound solution were added in sequence. The reaction was initiated after adding 20 µL of ATC or BTC, and the solution was mixed immediately. […] For the reference value, 100 µL of water replaced the test compound solution. For the blank control, additionally 100 µL of water replaced the enzyme solution. The measurement for each concentration was assayed in triplicate. GraphPad Prism 5 was used for data processing. The inhibition curve was fitted by plotting percentage enzyme activity (100% for the reference) versus logarithm of test compound concentration. The IC50 values were calculated according to the curve, and the data were shown in mean ± SEM.
(§4) The inhibitory effects on ChEs of all the target compounds were determined according to Ellman’s method. AChE from electrophorus electricus (eeAChE) and BuChE from equine serum (eqBuChE) were used in the assays.

Experiment [2] concerns the target T2, BuChE (EC 3.1.1.8) from horse serum (Equus caballus, UniProt P81908).
T2 construct: purchased Sigma-Aldrich C0663; host or cells: equine serum
In words: biochemical. The format is biochemical. The settings on record: for IC50: BuChE from horse serum, mean ± SEM of three experiments; for selective index (selectivity on BuChE): selectivity on BuChE over AChE (eeAChE, eqBuChE). The method, then: as §1, §2, §3, §4

T1 sequence (O42275 24-633): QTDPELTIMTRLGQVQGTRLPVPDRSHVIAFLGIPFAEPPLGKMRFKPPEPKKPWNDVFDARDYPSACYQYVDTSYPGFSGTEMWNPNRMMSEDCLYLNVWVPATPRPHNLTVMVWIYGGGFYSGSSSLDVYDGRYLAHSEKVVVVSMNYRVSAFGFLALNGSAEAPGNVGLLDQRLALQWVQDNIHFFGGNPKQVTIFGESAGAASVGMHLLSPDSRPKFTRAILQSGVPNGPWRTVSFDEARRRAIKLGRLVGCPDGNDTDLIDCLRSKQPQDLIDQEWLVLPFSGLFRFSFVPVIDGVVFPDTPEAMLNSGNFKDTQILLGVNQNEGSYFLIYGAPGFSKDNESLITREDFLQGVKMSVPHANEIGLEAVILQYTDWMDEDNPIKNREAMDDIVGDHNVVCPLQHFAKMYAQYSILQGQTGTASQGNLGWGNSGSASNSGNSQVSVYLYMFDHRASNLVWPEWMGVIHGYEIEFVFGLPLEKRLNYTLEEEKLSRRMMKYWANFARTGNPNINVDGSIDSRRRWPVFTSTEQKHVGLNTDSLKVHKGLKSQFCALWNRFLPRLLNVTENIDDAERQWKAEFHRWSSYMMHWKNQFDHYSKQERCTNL
T2 sequence (P81908 whole entry): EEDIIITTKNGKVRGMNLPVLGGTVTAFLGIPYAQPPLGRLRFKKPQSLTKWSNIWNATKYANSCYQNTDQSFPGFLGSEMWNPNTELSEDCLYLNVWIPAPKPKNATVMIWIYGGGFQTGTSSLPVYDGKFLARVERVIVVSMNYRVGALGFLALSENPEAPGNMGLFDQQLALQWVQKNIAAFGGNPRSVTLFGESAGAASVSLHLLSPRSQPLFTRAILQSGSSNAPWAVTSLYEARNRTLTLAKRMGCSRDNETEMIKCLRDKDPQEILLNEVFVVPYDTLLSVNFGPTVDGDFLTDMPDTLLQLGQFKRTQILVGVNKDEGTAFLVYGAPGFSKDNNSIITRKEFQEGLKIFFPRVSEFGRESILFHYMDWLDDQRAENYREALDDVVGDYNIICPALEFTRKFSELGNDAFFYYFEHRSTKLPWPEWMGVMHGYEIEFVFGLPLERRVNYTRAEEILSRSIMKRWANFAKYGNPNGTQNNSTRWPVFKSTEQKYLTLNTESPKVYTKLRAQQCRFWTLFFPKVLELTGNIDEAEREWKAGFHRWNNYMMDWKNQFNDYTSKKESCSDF

`O=C(/C=C/c1ccccc1)NCCNc1c2c(nc3ccccc13)CCCC2` [Compound 9]: in experiment [1], it took 328 ± 122 nM to reach half-maximal inhibition (IC50) and the “Selectivity index (SI) = BuChE IC50/AChE IC50” value was found to be 0.2. In experiment [2], this compound registered a half-inhibitory concentration (IC50) of 69.1 ± 27.3 nM.

Regarding `O=C(/C=C/c1ccccc1)NCCCNc1c2c(nc3ccccc13)CCCC2` [Compound 10], in experiment [1], half-maximal inhibition (IC50) required 100 ± 5.2 nM and the “Selectivity index (SI) = BuChE IC50/AChE IC50” value was 0.03. Moreover, in experiment [2], 3.5 ± 0.4 nM corresponded to half-maximal inhibition (IC50) and the “selective index (selectivity on BuChE)” value is 28.7.

In the case of `O=C(C=Cc1ccccc1)NCCCCNc1c2c(nc3ccccc13)CCCC2` [Compound 11, N-(4-((1,2,3,4-tetrahydroacridin-9-yl)amino)butyl)cinnamamide], in experiment [1], half-maximal inhibition (IC50) was put at 209 ± 76 nM and the “Selectivity index (SI) = BuChE IC50/AChE IC50” value worked out at 0.01. Moreover, in experiment [2], inhibition was half-maximal at 2.9 ± 0.4 nM (IC50) and the “selective index (selectivity on BuChE)” value was 71.17.

Turning to `O=C(C=Cc1ccccc1)NCCCCCCNc1c2c(nc3ccccc13)CCCC2` [Compound 12, N-(6-((1,2,3,4-tetrahydroacridin-9-yl)amino)hexyl)cinnamamide], in experiment [1], the IC50 was found to be 26.5 ± 10.7 nM and the “Selectivity index (SI) = BuChE IC50/AChE IC50” value is 1.3. The IC50 in experiment [2] was found to be 34.4 ± 16.6 nM.

Turning to `O=C(/C=C/c1ccccc1)NCCCCCCCCNc1c2c(nc3ccccc13)CCCC2` [Compound 13], the 50% inhibitory concentration (IC50) in experiment [1] worked out at 22.8 ± 9.2 nM; in experiment [2], 7.8 ± 4.7 nM. Also, the “Selectivity index (SI) = BuChE IC50/AChE IC50” value in experiment [1] is listed as 0.3.

For the compound `Cc1ccccc1/C=C/C(=O)NCCCCCCNc1c2c(nc3ccccc13)CCCC2` [Compound 14, (E)-N-(6-((1,2,3,4-tetrahydroacridin-9-yl)amino)hexyl)-3-(o-tolyl)acrylamide], in experiment [1], the IC50 came out at 36 ± 12.3 nM and the “Selectivity index (SI) = BuChE IC50/AChE IC50” value came out at 0.2. This compound also showed a 50% inhibitory concentration (IC50) in experiment [2] of 6 ± 1.5 nM.

Take `Cc1cccc(/C=C/C(=O)NCCCCCCNc2c3c(nc4ccccc24)CCCC3)c1` [Compound 15, (E)-N-(6-((1,2,3,4-tetrahydroacridin-9-yl)amino)hexyl)-3-(m-tolyl)acrylamide]: in experiment [1], the half-maximal inhibitory concentration (IC50) was found to be 53.1 ± 6.9 nM and the “Selectivity index (SI) = BuChE IC50/AChE IC50” value is listed as 0.7. Also, the IC50 in experiment [2] turned out to be 37.3 ± 7.2 nM.

Regarding `Cc1ccc(/C=C/C(=O)NCCCCCCNc2c3c(nc4ccccc24)CCCC3)cc1` [Compound 16, (E)-N-(6-((1,2,3,4-tetrahydroacridin-9-yl)amino)hexyl)-3-(p-tolyl)acrylamide], in experiment [1], the IC50 is 22 ± 3.7 nM and the “Selectivity index (SI) = BuChE IC50/AChE IC50” value was determined as 2.5. This compound gave a concentration for half-maximal inhibition (IC50) in experiment [2] of 54.4 ± 11.7 nM.

For the compound `O=C(/C=C/c1ccccc1[N+](=O)[O-])NCCCCCCNc1c2c(nc3ccccc13)CCCC2` [Compound 17, (E)-3-(2-nitrophenyl)-N-(6-((1,2,3,4-tetrahydroacridin-9-yl)amino)hexyl)acrylamide], the results for the IC50 in experiment [1] and in experiment [2] were 17.5 ± 3.7 nM and 3.6 ± 0.3 nM, respectively. The “Selectivity index (SI) = BuChE IC50/AChE IC50” value in experiment [1] is given as 0.2.

Consider `O=C(/C=C/c1cccc([N+](=O)[O-])c1)NCCCCCCNc1c2c(nc3ccccc13)CCCC2` [Compound 18, (E)-3-(3-nitrophenyl)-N-(6-((1,2,3,4-tetrahydroacridin-9-yl)amino)hexyl)acrylamide], for which, in experiment [1], the IC50 was 3.6 ± 0.5 nM and the “Selectivity index (SI) = BuChE IC50/AChE IC50” value was 1.9. This compound also gave an IC50 in experiment [2] of 6.8 ± 0.6 nM.

As for `O=C(/C=C/c1ccc(Cl)c([N+](=O)[O-])c1)NCCCCCCNc1c2c(nc3ccccc13)CCCC2` [Compound 20, (E)-3-(4-chloro-3-nitrophenyl)-N-(6-((1,2,3,4-tetrahydroacridin-9-yl)amino)hexyl)acrylamide], in experiment [1], it took 6.2 ± 2 nM to reach half-maximal inhibition (IC50) and the “Selectivity index (SI) = BuChE IC50/AChE IC50” value was 1.8. In experiment [2], this compound had an IC50 of 11.1 ± 2.2 nM.

Turning to `O=C(/C=C/c1ccccc1C(F)(F)F)NCCCCCCNc1c2c(nc3ccccc13)CCCC2` [Compound 21, (E)-N-(6-((1,2,3,4-tetrahydroacridin-9-yl)amino)hexyl)-3–(2-(trifluoromethyl)phenyl)acrylamide], in experiment [1], the IC50 worked out at 41.7 ± 8.5 nM and the “Selectivity index (SI) = BuChE IC50/AChE IC50” value is listed as 0.04. The same compound registered an IC50 in experiment [2] of 2.4 ± 0.6 nM.

For the compound `O=C(/C=C/c1cccc(C(F)(F)F)c1)NCCCCCCNc1c2c(nc3ccccc13)CCCC2` [Compound 22, (E)-N-(6-((1,2,3,4-tetrahydroacridin-9-yl)amino)hexyl)-3–(3-(trifluoromethyl)phenyl)acrylamide], in experiment [1], the IC50 came out at 61.3 ± 16.7 nM and the “Selectivity index (SI) = BuChE IC50/AChE IC50” value was 1.3. The compound further displayed an IC50 in experiment [2] of 81.1 ± 15.7 nM.

`O=C(/C=C/c1ccc(C(F)(F)F)cc1)NCCCCCCNc1c2c(nc3ccccc13)CCCC2` [Compound 23, (E)-N-(6-((1,2,3,4-tetrahydroacridin-9-yl)amino)hexyl)-3–(4-(trifluoromethyl)phenyl)acrylamide]: in experiment [1], the half-inhibitory concentration (IC50) worked out at 8.1 ± 0.3 nM and the “Selectivity index (SI) = BuChE IC50/AChE IC50” value came out at 2.0. The compound also displayed a concentration for half-maximal inhibition (IC50) in experiment [2] of 16.4 ± 1.8 nM.

As for `O=C(/C=C/c1ccc(F)cc1)NCCCCCCNc1c2c(nc3ccccc13)CCCC2` [Compound 24, (E)-3-(4-fluorophenyl)-N-(6-((1,2,3,4-tetrahydroacridin-9-yl)amino)hexyl)acrylamide], in experiment [1], the half-maximal inhibitory concentration (IC50) worked out at 15.4 ± 3.3 nM and the “Selectivity index (SI) = BuChE IC50/AChE IC50” value worked out at 4.3. Further, half-maximal inhibition in experiment [2] (IC50) required 65.9 ± 21.4 nM.

For the compound `O=C(/C=C/c1ccccc1Cl)NCCCCCCNc1c2c(nc3ccccc13)CCCC2` [Compound 25, (E)-3-(2-chlorophenyl)-N-(6-((1,2,3,4-tetrahydroacridin-9-yl)amino)hexyl)acrylamide], in experiment [1], the half-maximal inhibitory concentration (IC50) was 14.2 ± 3.2 nM and the “Selectivity index (SI) = BuChE IC50/AChE IC50” value came out at 0.6. In experiment [2], this compound registered a concentration for half-maximal inhibition (IC50) of 8.7 ± 2.7 nM.

As for `O=C(/C=C/c1cccc(Cl)c1)NCCCCCCNc1c2c(nc3ccccc13)CCCC2` [Compound 26, (E)-3-(3-chlorophenyl)-N-(6-((1,2,3,4-tetrahydroacridin-9-yl)amino)hexyl)acrylamide], in experiment [1], the IC50 came out at 16.2 ± 6.5 nM and the “Selectivity index (SI) = BuChE IC50/AChE IC50” value is reported as 0.6. For the same compound, 9.2 ± 2.5 nM corresponded to half-maximal inhibition in experiment [2] (IC50).

With `O=C(/C=C/c1ccc(Br)cc1)NCCCCCCNc1c2c(nc3ccccc13)CCCC2` [Compound 28, (E)-3-(4-bromophenyl)-N-(6-((1,2,3,4-tetrahydroacridin-9-yl)amino)hexyl)acrylamide], in experiment [1], the IC50 turned out to be 19.1 ± 2 nM and the “Selectivity index (SI) = BuChE IC50/AChE IC50” value was found to be 1.6. For the same compound, the IC50 in experiment [2] came out at 29.9 ± 1.8 nM.

In the case of `N#Cc1cccc(/C=C/C(=O)NCCCCCCNc2c3c(nc4ccccc24)CCCC3)c1` [Compound 29], in experiment [1], it took 5.1 ± 0.8 nM to reach half-maximal inhibition (IC50) and the “Selectivity index (SI) = BuChE IC50/AChE IC50” value is 13.4. The IC50 in experiment [2] stood at 68.5 ± 13.6 nM.

As for `COc1ccc(/C=C/C(=O)NCCCCCCNc2c3c(nc4ccccc24)CCCC3)c(OC)c1OC` [Compound 31, (E)-N-(6-((1,2,3,4-tetrahydroacridin-9-yl)amino)hexyl)-3–(2,3,4-trimethoxyphenyl)acrylamide], in experiment [1], the IC50 amounted to 24.1 ± 8.1 nM and the “Selectivity index (SI) = BuChE IC50/AChE IC50” value was 0.3. Besides, it took 8.1 ± 2 nM to reach half-maximal inhibition in experiment [2] (IC50).

As to `COc1cc(/C=C/C(=O)NCCCCCCNc2c3c(nc4ccccc24)CCCC3)cc(OC)c1OC` [Compound 32, (E)-N-(6-((1,2,3,4-tetrahydroacridin-9-yl)amino)hexyl)-3–(3,4,5-trimethoxyphenyl)acrylamide], in experiment [1], it took 6.4 ± 2.2 nM to reach half-maximal inhibition (IC50) and the “Selectivity index (SI) = BuChE IC50/AChE IC50” value stood at 0.5. This compound gave a concentration for half-maximal inhibition (IC50) in experiment [2] of 3.4 ± 0.4 nM.

`O=C(/C=C/c1cccc(O)c1)NCCCCCCNc1c2c(nc3ccccc13)CCCC2` [Compound 33, (E)-3-(3-hydroxyphenyl)-N-(6-((1,2,3,4-tetrahydroacridin-9-yl)amino)hexyl)acrylamide]: in experiment [1], 6.4 ± 2.1 nM corresponded to half-maximal inhibition (IC50) and the “Selectivity index (SI) = BuChE IC50/AChE IC50” value worked out at 3.9. For the same compound, in experiment [2], inhibition was half-maximal at 25.1 ± 6.5 nM (IC50).

As to `O=C(/C=C/c1ccc(O)cc1)NCCCCCCNc1c2c(nc3ccccc13)CCCC2` [Compound 34, (E)-3-(4-hydroxyphenyl)-N-(6-((1,2,3,4-tetrahydroacridin-9-yl)amino)hexyl)acrylamide], in experiment [1], it took 2.2 ± 0.3 nM to reach half-maximal inhibition (IC50) and the “Selectivity index (SI) = BuChE IC50/AChE IC50” value came to 19.8. In experiment [2], 43.5 ± 9.3 nM corresponded to half-maximal inhibition (IC50).

Take `COc1cc(/C=C/C(=O)NCCCCCCNc2c3c(nc4ccccc24)CCCC3)ccc1OCc1ccccc1` [Compound 36]: the 50% inhibitory concentration (IC50) in experiment [1] amounted to 86.3 ± 30 nM; in experiment [2] it was 29.8 ± 7.3 nM. The “Selectivity index (SI) = BuChE IC50/AChE IC50” value in experiment [1] came to 0.3.

With `COc1cc(/C=C/C(=O)NCCCCCCNc2c3c(nc4ccccc24)CCCC3)ccc1OCc1ccc(Cl)cc1` [Compound 37], the results for the IC50 in experiment [1] and in experiment [2] were 104 ± 26.4 nM and 22.6 ± 7.1 nM, respectively.

A word on the IC50: it is the point on the concentration scale where inhibition reaches its midpoint. Low readings indicate higher potency, high ones lower potency.
